21 molecules from patent publication US20250332173A1, “COMPOUNDS AND METHODS FOR MODULATING NUCLEIC ACID SPLICING” (REMIX THERAPEUTICS INC., priority 2021, published 2025) can be followed below.

In general, IC50 refers to the concentration that gives 50% inhibition.

What all share (format): cell-based, human
Assay [1] relates to Target C. The assay can be described thus: RT-qPCR splicing assay panel, Target C canonical junction (CJ) mRNA. To be noted: Homo sapiens; Table 5 panel; canonical junction qPCR; compound concentration having 50% response in CJ decrease; read-out: Target C IC50 (decrease in CJ mRNA levels). The method, boiled down: (§1)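 Cells are plated (A673 allowed 24 h to adhere), dosed with an 11-point 3-fold series topping at 10 uM final, and incubated 24 h at 37 °C. Lysis is followed by cDNA synthesis and qPCR of the CJ transcript, normalized to a housekeeping gene.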
For orientation: In qPCR the cycle at which signal appears reflects the starting amount.

The test system of a further assay is SMN2 mRNA. Put plainly: RT-qPCR splicing assay, SMN2 canonical junction (CJ) mRNA. The conditions noted are these: Homo sapiens; Table 5 panel; canonical junction qPCR; compound concentration having 50% response in CJ decrease; read-out: SMN2 IC50 (decrease in CJ mRNA levels). The procedure, abridged:
as §1

The subject of assay [2] is Target C. Put plainly: HiBiT protein abundance assay, Target C (Promega Nano-Glo HiBiT Lytic Detection System, knock-in K562 cell line). The conditions noted are these: Homo sapiens, K562, 24 h, HiBiT K562 cell line, 24 hours, top dose 10 μM; read-out: Effect on protein abundance, Target C (IC50 category). The procedure, abridged: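 Protein abundance was read by Nano-Glo HiBiT lytic luminescence after 24 h compound exposure (10-point, threefold series from 10 μM final) of HiBiT knock-in K562 cells. Parental K562 served as baseline; the 50%-abundance concentration was interpolated from a four-parameter logistic fit.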
(HiBiT is a short tag that completes a luciferase, so light tracks the accessible tagged protein.)

On to `Cc1cn2nc(-c3cc(F)c4c(=O)n(C5CCNC6(CC6)C5)ccc4c3)cc(C)c2n1` (stereo not drawn) [Compound 380, 6-(2,8-dimethylimidazo[1,2-b]pyridazin-6-yl)-8-fluoro-2-(4-azaspiro[2.5]octan-7-yl)isoquinolin-1(2H)-one], for which the IC50 in the assay on Target C [1], with SMN2 mRNA and in the assay with Target C [2] was less than 100 nM throughout.
For the molecule `Cc1cn2nc(-c3ccc4c(=O)n(C5CCNCC5)cc(C)c4c3)cc(C)c2n1` [Compound 381, 6-{2,8-dimethylimidazo[1,2-b]pyridazin-6-yl}-4-methyl-2-(piperidin-4-yl)isoquinolin-1-one], the IC50 is 1000 to 10000 nM in the assay with Target C [1], less than 100 nM in the assay on SMN2 mRNA and 100 to 1000 nM in the assay with Target C [2].
On the same counts, the results for `Cc1cn2cc(-c3cc(F)c4c(=O)n(C5CCNCC5)ccc4c3)cc(C#N)c2n1` [Compound 383, 6-[8-fluoro-1-oxo-2-(piperidin-4-yl)isoquinolin-6-yl]-2-methylimidazo[1,2-a]pyridine-8-carbonitrile] are 1000 to 10000 nM, less than 100 nM and 100 to 1000 nM.
On the same counts, the results for `Cc1cn2nc(-c3ccc4c(=O)n(C5CCNC6(CC6)C5)ccc4c3)cc(C)c2n1` (stereo not drawn) [Compound 384] are 100 to 1000 nM, less than 100 nM and less than 100 nM.
For the molecule `Cc1cn2nc(-c3cc(C#N)c4c(=O)n(C5CCNC6(CC6)C5)ccc4c3)cc(C)c2n1` (stereo not drawn) [Compound 387], the IC50 with Target C [1] is 100 to 1000 nM; with SMN2 mRNA, less than 100 nM; in the assay on Target C [2] it was less than 100 nM.
Take `Cc1cn2nc(-c3cc(Cl)c4c(=O)n(C5CCNCC5)ccc4c3)cc(C)c2n1` [Compound 390, 8-chloro-6-{2,8-dimethylimidazo[1,2-b]pyridazin-6-yl}-2-(piperidin-4-yl)isoquinolin-1-one; trifluoroacetaldehyde]: the IC50 with Target C [1], in the assay with SMN2 mRNA and in the assay with Target C [2] was less than 100 nM in each case.
For the molecule `Cc1cn2nc(-c3cc(O)c4c(=O)n(C5CCNCC5)ccc4c3)cc(C)c2n1` [Compound 391, 6-(2,8-dimethylimidazo[1,2-b]pyridazin-6-yl)-8-hydroxy-2-(piperidin-4-yl)isoquinolin-1(2H)-one], the 50% inhibitory concentration (IC50) in the assay on Target C [1], in the assay with SMN2 mRNA and in the assay on Target C [2] was less than 100 nM each time.
For `CC(=O)c1cc(-c2cc(F)c3c(=O)n(C4CCNCC4)ccc3c2)cn2cc(C)nc12` [Compound 393, 6-{8-acetyl-2-methylimidazo[1,2-a]pyridin-6-yl}-8-fluoro-2-(piperidin-4-yl)isoquinolin-1-one 2,2,2-trifluoroacetate], the IC50 with Target C [1] is 1000 to 10000 nM; in the assay on SMN2 mRNA, less than 100 nM; in the assay on Target C [2], 100 to 1000 nM.
On the same counts, the results for `Cn1cc2cc(-c3cc(F)c4c(=O)n(C5CCNCC5)ccc4c3)cc(C#N)c2n1` [Compound 394, 5-(8-fluoro-1-oxo-2-(piperidin-4-yl)-1,2-dihydroisoquinolin-6-yl)-2-methyl-2H-indazole-7-carbonitrile] are 100 to 1000 nM, less than 100 nM and less than 100 nM.
On the same counts, the results for `COc1cc(-c2cc(C)c3nc(C)cn3n2)cc2ccn(C3CCNCC3)c(=O)c12` [Compound 399, 6-{2,8-dimethylimidazo[1,2-b]pyridazin-6-yl}-8-methoxy-2-(piperidin-4-yl)isoquinolin-1-one] are 1000 to 10000 nM, less than 100 nM and 100 to 1000 nM.
The corresponding values for `Cc1cn2nc(-c3cc(F)c4c(=O)n(C5CCN(C)CC5)ccc4c3)cc(C)c2n1` [Compound 400, 6-(2,8-dimethylimidazo[1,2-b]pyridazin-6-yl)-8-fluoro-2-(1-methylpiperidin-4-yl)isoquinolin-1(2H)-one] are 100 to 1000 nM, less than 100 nM and less than 100 nM.
On to `CCN1CCC(n2ccc3cc(-c4cc(C)c5nc(C)cn5n4)ccc3c2=O)CC1` [Compound 402, 6-{2,8-dimethylimidazo[1,2-b]pyridazin-6-yl}-2-(1-ethylpiperidin-4-yl)isoquinolin-1-one], for which the IC50 is 100 to 1000 nM with Target C [1], less than 100 nM with SMN2 mRNA and 100 to 1000 nM with Target C [2].
Take `Cc1cn2cc(-c3ccc4c(=O)n([C@H]5CCCNC5)ccc4c3)cc(F)c2n1` [Compound 404, 6-{8-fluoro-2-methylimidazo[1,2-a]pyridin-6-yl}-2-[(3S)-piperidin-3-yl]isoquinolin-1-one]: the IC50 in the assay on Target C [1] was greater than 10000 nM; in the assay with SMN2 mRNA, less than 100 nM; in the assay with Target C [2] it was 1000 to 10000 nM.
The corresponding values for `Cc1cn2cc(-c3cc(S(C)(=O)=O)c4c(=O)n(C5CCNCC5)ccc4c3)cc(F)c2n1` [Compound 409, 6-(8-fluoro-2-methylimidazo[1,2-a]pyridin-6-yl)-8-(methylsulfonyl)-2-(piperidin-4-yl)isoquinolin-1(2H)-one] are greater than 10000 nM, greater than 10000 nM and greater than 10000 nM.
The corresponding values for `Cn1cc2cc(-c3cc(F)c4c(=O)n(C5CCNC6(CC6)C5)ccc4c3)cc(F)c2n1` (stereo not drawn) [Compound 412] are less than 100 nM, less than 100 nM and less than 100 nM.
As for `Cc1cn2cc(-c3cc(F)c4c(=O)n(C5CCNC6(CC6)C5)ccc4c3)cc(Cl)c2n1` (stereo not drawn) [Compound 413, 2-{4-azaspiro[2.5]octan-7-yl}-6-{8-chloro-2-methylimidazo[1,2-a]pyridin-6-yl}-8-fluoroisoquinolin-1-one], the IC50 is 100 to 1000 nM in the assay on Target C [1], less than 100 nM in the assay on SMN2 mRNA and less than 100 nM in the assay with Target C [2].
Turning to `Cn1cc2cc(-c3cc(F)c4c(=O)n(C5CCNC6(CC6)C5)ccc4c3)c(O)cc2n1` (stereo not drawn) [Compound 414, 2-{4-azaspiro[2.5]octan-7-yl}-8-fluoro-6-(6-hydroxy-2-methylindazol-5-yl)isoquinolin-1-one], the IC50 in the assay on Target C [1] is greater than 10000 nM; with SMN2 mRNA, 100 to 1000 nM; with Target C [2], greater than 10000 nM.
With `Cc1cc(-c2cc(F)c3c(=O)n(C4CCNC5(CC5)C4)ccc3c2)cc2cn(C)nc12` (stereo not drawn) [Compound 415, 2-{4-azaspiro[2.5]octan-7-yl}-6-(2,7-dimethylindazol-5-yl)-8-fluoroisoquinolin-1-one], the IC50 in the assay with Target C [1] was 100 to 1000 nM; in the assay on SMN2 mRNA it was less than 100 nM; in the assay on Target C [2] it was less than 100 nM.
With `Cc1cn2cc(-c3cc(F)c4c(=O)n(C5CCNC6(CC6)C5)ccc4c3)cc(C)c2n1` (stereo not drawn) [Compound 416, 2-{4-azaspiro[2.5]octan-7-yl}-6-{2,8-dimethylimidazo[1,2-a]pyridin-6-yl}-8-fluoroisoquinolin-1-one], the IC50 was 100 to 1000 nM in the assay on Target C [1], less than 100 nM in the assay with SMN2 mRNA and less than 100 nM in the assay with Target C [2].
With `Cc1nc2c(F)cc(-c3cc(F)c4c(=O)n(C5CCNC6(CC6)C5)ccc4c3)cc2o1` (stereo not drawn) [Compound 417, 2-{4-azaspiro[2.5]octan-7-yl}-8-fluoro-6-(4-fluoro-2-methyl-1,3-benzoxazol-6-yl)isoquinolin-1-one], the IC50 is 100 to 1000 nM with Target C [1], less than 100 nM with SMN2 mRNA and less than 100 nM with Target C [2].
Regarding `Cc1nc2c(C)cc(-c3cc(F)c4c(=O)n(C5CCNC6(CC6)C5)ccc4c3)cc2o1` (stereo not drawn) [Compound 418, 2-{4-azaspiro[2.5]octan-7-yl}-6-(2,4-dimethyl-1,3-benzoxazol-6-yl)-8-fluoroisoquinolin-1-one], the results for the IC50 with Target C [1], with SMN2 mRNA and with Target C [2] were 100 to 1000 nM, less than 100 nM and less than 100 nM, respectively.
